Assay results published in US20050042318A1, “Extracts from hop, methods for producing the same and their use” (priority 2001, published 2005).

Assays:
[1] = target: T1, human oestrogenic receptor (Homo sapiens, UniProt P03372); details: Milligan et al.; cited from earlier work
T1 construct: host or cells: yeast cells
T1 sequence (P03372 1-595): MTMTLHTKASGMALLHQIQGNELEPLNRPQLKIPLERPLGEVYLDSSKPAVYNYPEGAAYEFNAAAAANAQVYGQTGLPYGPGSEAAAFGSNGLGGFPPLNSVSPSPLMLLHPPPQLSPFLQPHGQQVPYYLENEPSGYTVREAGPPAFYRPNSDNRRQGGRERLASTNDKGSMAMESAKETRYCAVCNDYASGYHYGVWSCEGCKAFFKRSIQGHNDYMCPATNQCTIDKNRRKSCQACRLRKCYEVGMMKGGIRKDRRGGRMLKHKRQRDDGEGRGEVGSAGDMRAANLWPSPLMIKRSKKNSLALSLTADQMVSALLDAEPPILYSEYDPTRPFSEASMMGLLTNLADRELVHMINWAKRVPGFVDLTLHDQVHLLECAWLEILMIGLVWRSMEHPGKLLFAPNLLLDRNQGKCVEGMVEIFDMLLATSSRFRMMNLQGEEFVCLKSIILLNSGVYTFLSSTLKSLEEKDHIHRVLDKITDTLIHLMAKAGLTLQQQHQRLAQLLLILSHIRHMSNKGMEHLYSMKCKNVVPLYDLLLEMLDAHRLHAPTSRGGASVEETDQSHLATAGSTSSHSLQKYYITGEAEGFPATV

[2] = tested on: Ishikawa-Var-I-cells; details: cited from earlier work
[3] = tested on: ovariectomised rats; details: Miyamoto et al. 1998; cited from earlier work
[4] = target: T2, human oestrogenic receptor alpha (ER-α) (Homo sapiens, UniProt P03372); test: competitive receptor binding assay, displacement of radioactively labelled oestradiol, ER-α; details: for relative potency [formula] (ratio ER-α to ER-β): head is a formula, values fit relative potency ER-α / ER-β
T2 sequence (P03372 1-595): T1 sequence (P03372 1-595)
Method: Thereby, a radioactively labelled oestradiol was initially bonded to the human oestrogen receptor and then treated with the test substance to be examined. A portion of the labelled oestradiol which corresponds to the oestrogenic potency of the sample is thus displaced. Excessive oestradiol is washed out after bonding of the complex to hydroxylapatite. The oestrogenic receptors ER-α and ER-β were commercially available as recombinant human receptors. The test preparations consisted of 1000 μl TEDG buffer (10 mM tris, 1,5 mM EDTA, 10% glycerol, pH 7.5), 5 μl receptor (200 nM), 10 μl 3H-oestradiol and 10 μl ethanol (control value), 10 μl diethylstiloestrol (100 mM, positive control) or 10 μl extract or ingredient of the extract, respectively. The preparations were carefully mixed and incubated for about 16 hours at room temperature in the dark. After incubation 250 μl hydroxylapatite (HAP) were added to absorb the proteins. During a period of incubation of 15 minutes the preparations were manually mixed with a time-lag of 5 minutes, respectively. The precipitate is separated by centrifugation at 10,000 rpm for a few seconds and the supernatant liquid is separated by pipetting. The pellet is washed three times with 1000 μl TEDG buffer, respectively, 1000 μl ethanol are added for the measurement, the mixture is slurried and transferred to a scintillation vial. After adding 9 ml scintillator liquid (Ready Safe, Beckmann) a measurement over the complete ^3H window is carried out using a Beckmann Beta-Counter.
The characterisation of the bonding capacities of the test substances results from the determination of the ED50 values taken from the dosis-effect-plots of the displacement of oestradiol.

[5] = tested on: osteolysis; details: EP 0 679 393 B1; cited from earlier work
[6] = tested on: human breast cancer cells MCF-7; details: Miranda et al. 1999; cited from earlier work
[7] = tested on: colon cancer cell lines HAT-29; details: Miranda et al. 1999; cited from earlier work
[8] = tested on: ovarian cancer cell lines A-2780; details: Miranda et al. 1999; cited from earlier work

Compound	oestrogenic activity, human oestrogenic receptor in yeast [1]	relative potency [formula] (ratio ER-α to ER-β) [4]	antiproliferative activity [6]	interaction with ER-α, in words [4]	antiproliferative activity [7]	antiproliferative activity [8]	also measured
CC(C)=CCc1c(O)cc(O)c2c1O[C@H](c1ccc(O)cc1)CC2=O	most powerful oestrogenic activity	2.72	–	–	–	–	oestrogenic activity in vitro, stimulating alkaline phosphatase ([2]; Ishikawa-Var-I-cells, Milligan et al. 1999): significantly more active than the phytooestrogenes known so far; osseous density [3]: normalises; weight of the uterus [3]: normalises
COc1cc(O)c(CC=C(C)C)c(O)c1C(=O)/C=C/c1ccc(O)cc1 [Xanthohumol]	could not be detected	0.78	strong antiproliferative activity	comparable activity	strong antiproliferative activity	strong antiproliferative activity	effect on osteolysis [5]: inhibiting effect; oestrogenic activity in human endometrial carcinoma cell line Ishikawa ([2]; Milligan et al.): could not be detected
CC(C)=CCc1c(O)cc2c(c1O)C(=O)C[C@@H](c1ccc(O)cc1)O2	weaker oestrogenic properties	0.37	–	–	–	–	–
CC(C)=CCc1c(O)c(CC=C(C)C)c2c(c1O)C(=O)C[C@@H](c1ccc(O)cc1)O2 [6,8-diprenylnaringenine]	weaker oestrogenic properties	–	–	–	–	–	–
COc1cc(O)c(CC=C(C)C)c2c1C(=O)CC(c1ccc(O)cc1)O2 (stereo not shown) [Isoxanthohumol, isoxanthohumol]	–	0.54	strong antiproliferative activity	comparable activity	strong antiproliferative activity	strong antiproliferative activity	–
CC(C)=CCC/C(C)=C/Cc1c(O)cc(O)c2c1O[C@H](c1ccc(O)cc1)CC2=O [8-geranylnaringenine]	weaker oestrogenic properties	–	–	–	–	–	–
